From EPA's ToxRefDB 2

How the values were obtained:
rabbit = details: Prenatal developmental toxicity study, new zealand white, Oral, Gavage/Intubation, dose end: 19 GD
mouse [1] = details: Carcinogenicity; b6c3f1; Oral; Feed; dose end: 103 week; group: systemic; systemic / in life observation / clinical signs / [other] + systemic / pathology microscopic / ovary / atrophy + systemic / pathology …
mouse [2] = details: Subchronic oral toxicity in rodents, b6c3f1, Feed, dose end: 13 week, group: systemic
rat [3] = details: Subchronic oral toxicity in rodents, fischer, Feed, dose end: 13 week, group: systemic
mouse [4] = details: Prenatal developmental toxicity study, cd1, Oral, Feed, dose end: 15 GD
rat [5] = details: Sub-acute repeat dose toxicity, fischer, Oral, Feed, dose end: 14 day, group: systemic
mouse [6] = details: Multigenerational reproductive toxicity study, cd1, Oral, Feed, dose end: 2 generation
mouse [7] = details: Sub-acute repeat dose toxicity, b6c3f1, Oral, Feed, dose end: 14 day, group: systemic
rat [8] = details: Carcinogenicity; fischer; Oral; Feed; dose end: 103 week; group: systemic; systemic / in life observation / clinical signs / muscle fasciculation + systemic / in life observation / clinical signs / skeletal muscle …
mouse [9] = details: Carcinogenicity, b6c3f1, Oral, Gavage/Intubation, dose end: 103 week, group: systemic
rat [10] = details: Carcinogenicity, fischer, Oral, Gavage/Intubation, dose end: 103 week, group: systemic
rat [11] = details: Subchronic oral toxicity in rodents, fischer, Gavage/Intubation, dose end: 13 week, group: systemic
mouse [12] = details: Sub-acute repeat dose toxicity, b6c3f1, Oral, Gavage/Intubation, dose end: 14 day, group: systemic
rat [13] = details: Sub-acute repeat dose toxicity, fischer, Oral, Gavage/Intubation, dose end: 14 day, group: systemic
mouse [14] = details: Subchronic oral toxicity in rodents, b6c3f1, Gavage/Intubation, dose end: 13 week, group: systemic
[15] = group: developmental, developmental / developmental malformation / general / [other]
[16] = group: maternal, reproductive / reproductive performance / resorptions / resorptions + systemic / in life observation / body weight / body weight + systemic…
[17] = systemic / in life observation / body weight / body weight + systemic / in life observation / body weight / body weight gain + systemic / in…
[18] = group: developmental, systemic / in life observation / body weight / fetal weight
[19] = group: maternal, reproductive / offspring survival early / dead fetuses / dead fetuses
[20] = systemic / in life observation / body weight / body weight gain + systemic / in life observation / clinical signs / [other] + systemic / in …
[21] = systemic / in life observation / clinical signs / lethargy + systemic / in life observation / clinical signs / fur (altered appearance) + …
[22] = group: offspring, systemic / in life observation / clinical signs / cannibalism
[23] = group: offspring, systemic / in life observation / clinical signs / cannibalism + developmental / offspring survival late / [other] / [other] + systemic / in …
[24] = group: parental, systemic / in life observation / body weight / body weight + systemic / in life observation / clinical signs / cannibalism + systemic / in …
[25] = group: parental, systemic / in life observation / food consumption / food consumption + systemic / in life observation / water consumption / water …
[26] = group: reproductive, reproductive / offspring survival early / birth index / birth index + reproductive / reproductive performance / dystocia / dystocia + …
[27] = group: reproductive, reproductive / reproductive performance / estrous cycle / abnormal
[28] = systemic / in life observation / clinical signs / [other]
[29] = systemic / in life observation / clinical signs / [other] + systemic / in life observation / clinical signs / fur (altered appearance) + …
[30] = systemic / pathology microscopic / liver / vacuolization cytoplasmic
[31] = systemic / pathology microscopic / liver / vacuolization cytoplasmic + systemic / in life observation / clinical signs / defecation (…
[32] = systemic / pathology microscopic / liver / vacuolization cytoplasmic + systemic / pathology microscopic / liver / degeneration
[33] = systemic / pathology microscopic / liver / vacuolization cytoplasmic + systemic / pathology microscopic / liver / degeneration + systemic / …
[34] = systemic / pathology microscopic / liver / necrosis + systemic / pathology microscopic / liver / vacuolization cytoplasmic + systemic / in …
[35] = systemic / in life observation / body weight / body weight
[36] = systemic / in life observation / body weight / body weight + systemic / in life observation / clinical signs / abnormal posture + systemic…
[37] = systemic / pathology microscopic / liver / vacuolization cytoplasmic + systemic / in life observation / body weight / body weight + systemic…

NC(=O)N/N=C/c1ccc([N+](=O)[O-])o1 [Nitrofurazone]
LEL (rabbit; [15]): 20 mg/kg/day
LOAEL (rabbit; [15]): 20 mg/kg/day
NEL (rabbit; [15]): 15 mg/kg/day
NOAEL (rabbit; [15]): 15 mg/kg/day
LOAEL (rabbit; group: maternal, reproductive / reproductive performance / resorptions / resorptions): 20 mg/kg/day
NEL (rabbit; [16]): 5 mg/kg/day
NOAEL (rabbit; [16]): 15 mg/kg/day
LEL (rabbit; group: maternal, systemic / in life observation / body weight / body weight): 10 mg/kg/day
LEL (mouse [1]): 14 mg/kg/day
LOAEL (mouse [1]): 14 mg/kg/day
NEL (mouse [1]): < 14 mg/kg/day
NOAEL (mouse [1]): < 14 mg/kg/day
LOAEL (mouse [2]; [17]): > 188 mg/kg/day
NEL (mouse [2]; [17]): 46.5 mg/kg/day
NOAEL (mouse [2]; [17]): ≥ 188 mg/kg/day
LEL (mouse [2]; systemic / in life observation / clinical signs / [other] + systemic / in life observation / clinical signs / excitation + systemic / in …): 93 mg/kg/day
NEL (rat [3]; systemic / organ weight / liver / relative to body weight + systemic / in life observation / body weight / body weight + systemic / in life …): 7.5 mg/kg/day
LOAEL (rat [3]; systemic / pathology microscopic / testes / degeneration): 15.5 mg/kg/day
NOAEL (rat [3]; systemic / pathology microscopic / testes / degeneration + systemic / in life observation / body weight / body weight + systemic / in life …): 7.5 mg/kg/day
LEL (rat [3]; systemic / pathology microscopic / testes / degeneration + systemic / organ weight / liver / relative to body weight): 15.5 mg/kg/day
LEL (mouse [4]; [18]): 81.7 mg/kg/day
LOAEL (mouse [4]; [18]): > 81.7 mg/kg/day
NEL (mouse [4]; [18]): 41.2 mg/kg/day
NOAEL (mouse [4]; [18]): ≥ 81.7 mg/kg/day
LEL (mouse [4]; [19]): 41.2 mg/kg/day
LOAEL (mouse [4]; [19]): 41.2 mg/kg/day
NEL (mouse [4]; [19]): 13.6 mg/kg/day
NOAEL (mouse [4]; [19]): 13.6 mg/kg/day
LOAEL (rat [5]; [20]): 125 mg/kg/day
NOAEL (rat [5]; [20]): 62.5 mg/kg/day
LEL (rat [5]; [21]): 31.5 mg/kg/day
NEL (rat [5]; [21]): < 31.5 mg/kg/day
LEL (mouse [6]; [22]): 15 mg/kg/day
NEL (mouse [6]; [22]): < 15 mg/kg/day
LOAEL (mouse [6]; [23]): > 112 mg/kg/day
NOAEL (mouse [6]; [23]): ≥ 112 mg/kg/day
LOAEL (mouse [6]; [24]): > 112 mg/kg/day
NOAEL (mouse [6]; [24]): ≥ 112 mg/kg/day
LEL (mouse [6]; [25]): 15 mg/kg/day
NEL (mouse [6]; [25]): < 15 mg/kg/day
LOAEL (mouse [6]; [26]): > 112 mg/kg/day
NOAEL (mouse [6]; [26]): ≥ 112 mg/kg/day
LEL (mouse [6]; [27]): 15 mg/kg/day
NEL (mouse [6]; [27]): < 15 mg/kg/day
LOAEL (mouse [7]; [28]): 94.5 mg/kg/day
NOAEL (mouse [7]; [28]): < 94.5 mg/kg/day
LEL (mouse [7]; [29]): 94.5 mg/kg/day
NEL (mouse [7]; [29]): < 94.5 mg/kg/day
LEL (rat [8]): 11 mg/kg/day
LOAEL (rat [8]): 11 mg/kg/day
NEL (rat [8]): < 11 mg/kg/day
NOAEL (rat [8]): < 11 mg/kg/day

OC[P+](CO)(CO)CO.[Cl-] [Tetrakis(hydroxymethyl)phosphonium chloride]
LOAEL (mouse [9]; [30]): 7.5 mg/kg/day
NOAEL (mouse [9]; [30]): < 7.5 mg/kg/day
LEL (mouse [9]; [31]): 7.5 mg/kg/day
NEL (mouse [9]; [31]): < 7.5 mg/kg/day
LOAEL (rat [10]; [32]): 3.75 mg/kg/day
NOAEL (rat [10]; [32]): < 3.75 mg/kg/day
LEL (rat [10]; [33]): 3.75 mg/kg/day
NEL (rat [10]; [33]): < 3.75 mg/kg/day
NEL (rat [11]; systemic / in life observation / body weight / body weight + systemic / pathology microscopic / liver / necrosis + systemic / pathology …): 3.75 mg/kg/day
LOAEL (rat [11]; [34]): 30 mg/kg/day
NOAEL (rat [11]; [34]): 15 mg/kg/day
LEL (rat [11]; [30]): 7.5 mg/kg/day
LEL (mouse [12]; [35]): 18.8 mg/kg/day
LOAEL (mouse [12]; [35]): 150 mg/kg/day
NEL (mouse [12]; [35]): < 18.8 mg/kg/day
NOAEL (mouse [12]; systemic / in life observation / body weight / body weight + systemic / in life observation / mortality / mortality): 75 mg/kg/day
LEL (rat [13]; [35]): 18.8 mg/kg/day
LOAEL (rat [13]; [35]): 37.5 mg/kg/day
NEL (rat [13]; [36]): 9.4 mg/kg/day
NOAEL (rat [13]; [36]): 18.8 mg/kg/day
LEL (mouse [14]; [30]): 15 mg/kg/day
NEL (mouse [14]; [37]): 4.5 mg/kg/day
NOAEL (mouse [14]; [37]): 15 mg/kg/day
LOAEL (mouse [14]; systemic / pathology microscopic / liver / vacuolization cytoplasmic + systemic / pathology microscopic / liver / necrosis): 45 mg/kg/day
